In PubChem BioAssay AID1208 (EPA DSSTox, 2008):
Calls of active or inactive are those of the source.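 How the source made its calls: active means at least one rat sex group has a carcinogenic potency value and tumor site recorded; inconclusive means only rat studies were judged inadequate by the national testing program; inactive means no potency or tumor site, with negative rat experiments.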

Each compound was assayed on rat chronic carcinogenicity bioassay, TD50 (assay: DSSTox (CPDBAS) Carcinogenic Potency Database Summary Rat Bioassay Results). Details: TD50_Rat_Note: TD50 is harmonic mean of more than one positive test; TargetSites_Rat_Female: all tumor bearing animals; stronger effect = lower value.
Excerpt: The Carcinogenic Potency Database (CPDB) is a unique and widely used international resource of the results of over 6500 chronic, long-term animal cancer tests on over 1500 chemical substances. The CPDB provides easy access to the bioassay literature, with qualitative and quantitative analyses of both positive and negative experiments that have been published over the past 50 years in the general literature and by the National Cancer Institute/National Toxicology Program. The CPDB standardizes the diverse literature of cancer bioassays that vary widely in protocol, histopathological examination and nomenclature, and in the published author's choices of what information to provide in their papers. Results are reported in the CPDB for tests in rats, mice, hamsters, dogs, and nonhuman primates, and are based on the most positive result among all experiments for each sex-species. The DSSTox CPDBAS (all species) file incorporates data from the CPDB Summary Tables for the full list of over 1500 chemical substances tested in at least one species. Summary bioassay results for Rat (TD50, tumor sites, male, female, both sexes) are provided in the CPDB Summary Tables and the DSSTox CPDBAS file for over 1200 chemical substances.
TD50 is a standardized quantitative measure of carcinogenic potency (analogous to an LD50) and is reported in the CPDB Summary Table for each species. Activity Score for actives is computed by mapping of LOG10 (1/TD50_Rat_mmol) activity values spanning range [MIN, MAX] onto Integer 1-100 Activity Score range, where 100 is highest potency and 1 is lowest: Activity Score = 100 * INTEGER[(log10(1/Activity) - MIN)/(MAX - MIN)]. If activity is reported but no TD50_Rat_mmol value is computed, such as for a mixture, the Activity Score is assigned the activity value "50". […] Target sites are reported for each sex-species group with a positive result in the CPDB on the basis of a positive author's opinion for the particular site, using all results from both the general literature and NCI/NTP bioassays. If a chemical has two or more target sites listed, the results may be from different experiments, and a single site may be a target organ in more than one experiment, as well. Blank entry in TargetSites field indicates no results reported.
In the case of O=NN1CC(=O)NC1=O, the Potency is reported as 43.8 mg/kg/day.

Same assay, conditions: TD50_Rat_Note: TD50 is harmonic mean of more than one positive test; TargetSites_Rat_Female: esophagus; nasal cavity; stronger effect = lower value
CC(O)CN(CC(C)O)N=O (stereo not given) showed a Potency of 0.846 mg/kg/day.

Same assay, conditions: TD50_Rat_Note: TD50 is harmonic mean of more than one positive test; TargetSites_Rat_Female: hematopoietic system; liver; vascular system; stronger effect = lower value
C=C1C/C(=C/C)C(=O)O[C@@H]2CCN3CC=C(COC(=O)[C@@]1(O)CO)[C@H]23 was tested, and the Potency was 0.119 mg/kg/day.

Same assay, conditions: TD50_Rat_Note: TD50 is harmonic mean of more than one positive test; TargetSites_Rat_Female: kidney; mammary gland; stronger effect = lower value
For NNc1nc(-c2ccc([N+](=O)[O-])o2)cs1, the Potency was 3.19 mg/kg/day.

Same assay, conditions: TD50_Rat_Note: TD50 is harmonic mean of more than one positive test; TargetSites_Rat_Female: liver; stronger effect = lower value
With CC(O)CN(N=O)C(=O)NCCCl (stereo not given) the Potency was 0.873 mg/kg/day.
In the case of C[C@]12CC[C@H](O)CC1=CC[C@@H]1[C@@H]2CC[C@]2(C)C(=O)CC[C@@H]12, the Potency is reported as 83.5 mg/kg/day.

Same assay, conditions: TD50_Rat_Note: TD50 is harmonic mean of more than one positive test; TargetSites_Rat_Female: liver; mammary gland; stronger effect = lower value
For ClC(Cl)(Cl)Cl, the Potency was 27.8 mg/kg/day.
Work on Cc1ccc(N)cc1N yielded a Potency of 2.47 mg/kg/day.

Same assay, conditions: TD50_Rat_Note: TD50 is harmonic mean of more than one positive test; TargetSites_Rat_Female: mammary gland; stronger effect = lower value
CC(=O)Nc1nc(-c2ccc([N+](=O)[O-])o2)cs1 showed a Potency of 17.8 mg/kg/day.

Same assay, conditions: TD50_Rat_Note: TD50 is harmonic mean of more than one positive test; greater than ten-fold variation among TD50 values for positive res; TargetSites_Rat_Female: esophagus; ear Zymbals gland; hematopoietic system; large intestine; lung; mammary gland; stomach; uterus; vagina; stronger effect = lower value
CCCCN(N=O)C(N)=O showed a Potency of 0.517 mg/kg/day.

Same assay, conditions: TD50_Rat_Note: TD50 is harmonic mean of more than one positive test; greater than ten-fold variation among TD50 values for positive res; TargetSites_Rat_Female: liver; stronger effect = lower value
COC(N)=O was tested, and the Potency was 56.6 mg/kg/day.

Same assay, conditions: TD50_Rat_Note: TD50 is harmonic mean of more than one positive test; greater than ten-fold variation among TD50 values for positive res; TargetSites_Rat_Female: stomach; stronger effect = lower value
With COc1ccc2nc(S(=O)Cc3ncc(C)c(OC)c3C)[nH]c2c1 (stereo not given) the Potency was 119 mg/kg/day.

Same assay, conditions: TD50_Rat_Note: TD50 is harmonic mean of more than one positive test; stronger effect = lower value
For C=CC(OC(C)=O)c1ccc2c(c1)OCO2 (stereo not given), the Potency was 25 mg/kg/day.

Same assay, conditions: TD50_Rat_Note: TD50 value less than the reported upper confidence limit; TD50 is harmonic mean of more than one positive test; harmonic; TargetSites_Rat_Female: liver; stronger effect = lower value
Compound Cc1ccc(N=Nc2c(O)c(S(=O)(=O)O)cc3ccc(S(=O)(=O)O)cc23)c(C)c1 has a Potency of 415 mg/kg/day.

Same assay, conditions: TD50_Rat_Note: no positive results
With C=CC(=O)c1ccc2c(c1)OCO2 the outcome was “inactive; no positive results”.
With Cl the outcome was “inactive; no positive results”.
OC(O)C(Cl)(Cl)Cl was tested, and the outcome was “inactive; no positive results”.
CC[C@]1(O)CC2CN(CCc3c([nH]c4ccccc34)[C@@](C(=O)OC)(c3cc4c(cc3OC)N(C)[C@H]3[C@@](O)(C(=O)OC)[C@H](OC(C)=O)[C@]5(CC)C=CCN6CC[C@]43[C@@H]65)C2)C1 (stereo not given in full) was tested, and the outcome was “inactive; no positive results”.
With CC(C)Cc1ccc(C(C)C(=O)O)cc1 (stereo not given) the outcome was “inactive; no positive results”.
Nc1nc(N)nc(-c2ccccc2)n1 was tested, and the outcome was “inactive; no positive results”.
Nc1cnn([C@@H]2O[C@H](CO)[C@@H](O)[C@H]2O)c(=O)n1 was tested, and the outcome was “inactive; no positive results”.
CCCN(CCC)c1ccc(N=Nc2cc[n+]([O-])cc2)cc1 was tested, and the outcome was “inactive; no positive results”.
With CN[C@H]1CCc2cc(OC)c(OC)c(OC)c2-c2ccc(OC)c(=O)cc21 the outcome was “inactive; no positive results”.
For O=C(O)c1ccc(O)c(O)c1, the outcome was “inactive; no positive results”.

Same assay, conditions: TD50_Rat_Note: no positive results; TargetSites_Rat_BothSexes: no positive results
CC(=O)Oc1ccccc1C(=O)O was tested, and the outcome was “inactive; no positive results”.

Same assay, conditions: TD50_Rat_Note: no positive results; TargetSites_Rat_Female: no positive results
CC(C)NCC(O)c1ccc(NS(C)(=O)=O)cc1 (stereo not given) was tested, and the outcome was “inactive; no positive results”.
With Cl the outcome was “inactive; no positive results”.
With c1ccc2[nH]c(-c3cscn3)nc2c1 the outcome was “inactive; no positive results”.
CCOP(=S)(OCC)Oc1cc(C)nc(C(C)C)n1 was tested, and the outcome was “inactive; no positive results”.
With O=C1CCCO1 the outcome was “inactive; no positive results”.
For O=[N+]([O-])c1ccc2nc[nH]c2c1, the outcome was “inactive; no positive results”.
CC(C)=CCC/C(C)=C/C=O was tested, and the outcome was “inactive; no positive results”.
For CC1=CC(=C(c2ccc(N)cc2)c2ccc(N)cc2)C=CC1=N, the outcome was “inactive; no positive results”.
In the case of CCOc1ccc(NC(C)=O)cc1N, the outcome is reported as “inactive; no positive results”.
For CCC[CH2][Sn]([CH2]CCC)([CH2]CCC)[O][Sn]([CH2]CCC)([CH2]CCC)[CH2]CCC, the outcome was “inactive; no positive results”.
CC#N was tested, and the outcome was “inactive; no positive results”.
In the case of CCCCCc1cc(O)c2c(c1)OC(C)(C)[C@@H]1CCC(C)=C[C@@H]21, the outcome is reported as “inactive; no positive results”.
For O=[N+]([O-])/C=C/c1ccccc1, the outcome was “inactive; no positive results”.
In the case of O=C1CCCCCN1, the outcome is reported as “inactive; no positive results”.
CN(C)CCOc1ccc(/C(=C(/CCCl)c2ccccc2)c2ccccc2)cc1 was tested, and the outcome was “inactive; no positive results”.
In the case of CCN(CC)CC#CC(C)(C)OC(=O)C(O)(c1ccccc1)C1CCCCC1 (stereo not given), the outcome is reported as “inactive; no positive results”.
COc1ccc(C(c2ccc(OC)cc2)C(Cl)(Cl)Cl)cc1 was tested, and the outcome was “inactive; no positive results”.
O=C(O)COc1cc(Cl)c(Cl)cc1Cl was tested, and the outcome was “inactive; no positive results”.
Nc1ccc(N(CCO)CCO)cc1 was tested, and the outcome was “inactive; no positive results”.
In the case of CCOC1=C(O)C(=O)O[C@@H]1[C@@H](O)CO, the outcome is reported as “inactive”.
COP(=O)(OC)OC was tested, and the outcome was “inactive; no positive results”.
CNC(=O)Oc1cc(C)c(N(C)C)c(C)c1 was tested, and the outcome was “inactive; no positive results”.
With ClC(Cl)C(Cl)(Cl)Cl the outcome was “inactive; no positive results”.
CC(C)(C)NC[C@H](O)COc1cccc2c1CCCC2=O was tested, and the outcome was “inactive; no positive results”.
In the case of Nc1ccccc1-c1ccccc1, the outcome is reported as “inactive; no positive results”.
With Nc1ccc(Nc2ccccc2)cc1 the outcome was “inactive; no positive results”.
In the case of Cc1ccc(S(=O)(=O)NC(=O)NN2CCCCCC2)cc1, the outcome is reported as “inactive; no positive results”.
For O=C1NC(=O)C(c2ccccc2)(c2ccccc2)N1, the outcome was “inactive; no positive results”.
With CCC[N+](=O)[O-] the outcome was “inactive; no positive results”.
For O=C(CCl)c1ccccc1, the outcome was “inactive; no positive results”.
With CO[C@H]1/C=C/O[C@@]2(C)Oc3c(C)c(O)c4c(O)c(c(/C=N/N5CCN(C)CC5)c(O)c4c3C2=O)NC(=O)/C(C)=C\C=C\[C@H](C)[C@H](O)[C@@H](C)[C@@H](O)[C@@H](C)[C@H](OC(C)=O)[C@@H]1C the outcome was “inactive; no positive results”.
For CS(=O)(=O)OCCCNCCCOS(C)(=O)=O, the outcome was “inactive; no positive results”.
In the case of CN=C(NC#N)NCCSCc1nc[nH]c1C, the outcome is reported as “inactive; no positive results”.

Same assay, conditions: TD50_Rat_Note: only experiment is NCI/NTP bioassay inadequate; TargetSites_Rat_Female: NTP bioassay inadequate
For CC[C@H]1CN2CCc3cc(OC)c(OC)cc3[C@@H]2C[C@@H]1C[C@H]1NCCc2cc(OC)c(OC)cc21, the outcome was “ntp bioassay inadequate”.

Same assay, conditions: TD50_Rat_Note: positive test results only by intraperitoneal or intravenous injection; TD50_Rat_mmol was not calculated for this mixtur; stronger effect = lower value
Compound CC1=CC(C)(C)N(N=O)c2ccccc21 has a Potency of 3.31 mg/kg/day.

Same assay, conditions: TD50_Rat_Note: positive test results only by intraperitoneal or intravenous injection; TD50 is harmonic mean of more than one positive; TargetSites_Rat_Female: kidney; stronger effect = lower value
With CN(N=O)C(=O)N[C@@H]1[C@@H](O)[C@H](O)[C@@H](CO)O[C@@H]1O the Potency was 0.963 mg/kg/day.

Same assay, conditions: TargetSites_Rat_Female: esophagus; liver; nasal cavity; stronger effect = lower value
C=CCN(CC(C)O)N=O (stereo not given) showed a Potency of 0.877 mg/kg/day.
For CCCN(CCC)N=O, the Potency was 0.186 mg/kg/day.

Same assay, conditions: TargetSites_Rat_Female: kidney; stronger effect = lower value
c1ccc2occc2c1 was tested, and the Potency was 424 mg/kg/day.

Same assay, conditions: TargetSites_Rat_Female: kidney; lung; mammary gland; stronger effect = lower value
Compound Nc1ncc([N+](=O)[O-])s1 has a Potency of 44.6 mg/kg/day.

Same assay, conditions: TargetSites_Rat_Female: liver; stronger effect = lower value
O=C1C2(Cl)C3(Cl)C4(Cl)C(Cl)(Cl)C5(Cl)C3(Cl)C1(Cl)C5(Cl)C24Cl (stereo not given) was tested, and the Potency was 2.96 mg/kg/day.

Same assay, conditions: TargetSites_Rat_Female: mammary gland; stronger effect = lower value
In the case of C[N+](=O)[O-], the Potency is reported as 40.4 mg/kg/day.
With CC(=O)Nc1ccc(-c2ccccc2)cc1 the Potency was 1.18 mg/kg/day.
With Nc1nc(N)nc(-c2ccc([N+](=O)[O-])o2)n1 the Potency was 1.71 mg/kg/day.
In the case of Nc1ccc(-c2ccccc2)cc1, the Potency is reported as 0.98 mg/kg/day.

Same assay, conditions: TargetSites_Rat_Female: no positive results; stronger effect = lower value
With O=C1CN(/N=C/c2ccc([N+](=O)[O-])o2)C(=O)N1 the Potency was 163 mg/kg/day.
C1CCOC1 was tested, and the Potency was 407 mg/kg/day.
CC(F)(Cl)Cl gave a Potency of 5260 mg/kg/day.
OCc1ccco1 showed a Potency of 9.6 mg/kg/day.

Same assay, conditions: stronger effect = lower value
O=[N+]([O-])c1ccc(-c2nc(N(CCO)CCO)c3ccccc3n2)s1 was tested, and the Potency was 3.14 mg/kg/day.
With C/C=C1/C[C@@H](C)[C@](O)(CO)C(=O)OCC2=CCN3CC[C@@H](OC1=O)[C@@H]23 the Potency was 0.862 mg/kg/day.
Cc1ccc(N)cc1N gave a Potency of 4.42 mg/kg/day.
Compound CC1CN1P(=O)(N1CC1C)N1CC1C (stereo not given) has a Potency of 4.46 mg/kg/day.
Compound CCC(C)[N+](=O)[O-] (stereo not given) has a Potency of 2.86 mg/kg/day.
C#CC(OC(N)=O)(c1ccccc1)c1ccc(Cl)cc1 (stereo not given) gave a Potency of 8.78 mg/kg/day.
